The target of assay [1] is T1, IDO1 (Homo sapiens, UniProt P14902). Description: Hela cell-based IDO1 assay. The note with it: Hela cells. Put shortly: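 HeLa cells were seeded at 8000 per well in 96-well plates in phenol red-free DMEM with 10% FBS. After 4 hours, DMSO-diluted compound dilutions were added with IFN-γ (final 100 ng/mL) and 0.4 mM L-Trp, and cells were kept 48 hours at 37 °C, 5% CO2. Supernatant was deproteinised with trichloroacetic acid, and kynurenine was measured at 480 nm after adding 2% 4-(dimethylamino)benzaldehyde. Potency came from four-parameter logistic fits in XLfit.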
T1 sequence (P14902 whole entry): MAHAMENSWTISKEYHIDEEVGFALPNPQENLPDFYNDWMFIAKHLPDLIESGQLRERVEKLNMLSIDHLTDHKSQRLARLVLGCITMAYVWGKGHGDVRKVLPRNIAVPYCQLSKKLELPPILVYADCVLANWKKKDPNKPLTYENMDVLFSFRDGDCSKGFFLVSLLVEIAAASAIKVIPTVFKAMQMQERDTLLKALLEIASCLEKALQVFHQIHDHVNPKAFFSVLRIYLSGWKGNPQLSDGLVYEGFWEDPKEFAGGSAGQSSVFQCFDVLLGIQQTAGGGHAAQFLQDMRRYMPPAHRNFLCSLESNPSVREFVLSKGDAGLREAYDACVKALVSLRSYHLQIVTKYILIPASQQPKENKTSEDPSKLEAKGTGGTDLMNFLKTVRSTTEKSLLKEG

The target of assay [2] is T2, cellular TDO2 in HEK293-TDO2 cells (Homo sapiens, UniProt P48775).
T2 construct: expressed in transfected cells; host or cells: HEK293 (ATCC), stably transfected
T2 sequence (P48775 whole entry): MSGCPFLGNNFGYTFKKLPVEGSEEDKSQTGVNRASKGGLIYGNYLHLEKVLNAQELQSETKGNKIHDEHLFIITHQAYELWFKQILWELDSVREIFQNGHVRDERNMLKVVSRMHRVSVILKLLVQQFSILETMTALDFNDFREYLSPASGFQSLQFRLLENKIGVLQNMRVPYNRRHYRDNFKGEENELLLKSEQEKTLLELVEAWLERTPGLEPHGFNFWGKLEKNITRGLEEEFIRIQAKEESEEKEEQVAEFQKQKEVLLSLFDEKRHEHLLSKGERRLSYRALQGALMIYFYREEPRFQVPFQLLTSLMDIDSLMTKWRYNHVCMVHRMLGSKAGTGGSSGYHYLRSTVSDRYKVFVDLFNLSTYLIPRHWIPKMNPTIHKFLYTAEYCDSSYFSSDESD
Kind of assay: 293-TDO2 cell-based assay (Kyn colorimetric). Particulars: 48 hours of incubation. Here is the method:
The inhibitory activity of TDO2 inhibitors is determined by using a colorimetric reaction to measure Kyn generated from L-Trp (L-Tryptophon) oxidation by cellular TDO2 in HEK293-TDO2 cells stably transfected with a plasmid expression of Tryptophan 2,3-dioxygenase (for short, 293-TDO2).
HEK293 cells were obtained from the American Type Culture Collection and 293-TDO2 were recovered in 10% FBS-containing phenol red-free DMEM medium. Cells were plated onto a 96-well plate (100 μl/well) at 10000 cells per well and kept at 37° C. in a humidified incubator supplied with 5% CO2. 4 hours later, Compounds at different concentrations diluted in dimethylsulfoxide (DMSO) were added to plate. Cells were kept at 37° C. in a humidified incubator supplied with 5% CO2. After 48 hours of incubation, 100 μl supernatant from each well was removed to a new plate. The protein in the medium was precipitated with the addition of 8 μl 6N trichloroacetic acid. The plate was incubated at 60° C. for 30 minutes and then centrifugation at 2500 rpm for 10 minutes to remove sediments. 80 μl supernatants were carefully removed to a new clean plate and added with an equal volume of 2% 4-(Dimethylamino) benzaldehyde (D2004, sigma) dissolved in glacial acetic acid. The absorbance at 480 nm wavelength derived from Kyn was measured using a PHERAstar FS plate reader (BMG LABTECH). The IC50 for each compound was derived from fitting the dose-response data to the four-parameter logistic model by using XLfit software (IDBS).

The target of assay [3] is T1, IDO1. Kind of assay: IDO1 enzymatic assay. It is filed as biochemical. Also on record: His tag (N); made in house; host or cells: E. coli. A digest of the protocol: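 Recombinant N-terminally His-tagged IDO1 purified from E. coli (50 nM) was incubated with compound or DMSO and 1.3 mM D-tryptophan, 5 mM L-ascorbic acid, methylene blue and 0.4 mg/mL catalase. The buffer was 50 mM potassium phosphate pH 7.5 with 0.1% BSA, at 24 °C for 1.5 hours. N'-formylkynurenine formation was then read continuously at 321 nm for 1 hour, and activity was taken as the slope. IC50 was calculated from remaining enzyme activity across increasing compound concentrations.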

This is an account of results in US10882856B2 (BeiGene, Ltd., priority 2017, dated 2021).

Where two headings read alike, the source gives them in different places. A value given as a limit tells only on which side of the number the result lay.

In general, EC50 refers to the concentration needed to bring the measured effect to its halfway point. The term IC50 denotes the concentration that inhibits the measured activity by half. `O[C@@H](c1c(C2CC2)ccn2cncc12)[C@H]1CC[C@H](c2ccc(OC3COC3)cc2)CC1` (single isomer, unassigned) [Example C117b]: the EC50 (at IDO1 [1]; in assay [2]) was above 10 µM in each case. The IC50 at IDO1 [3] (read-out: Enzyme IC50 IDO1) came out at 1.1 µM.
As for `O[C@@H](c1c(C2CC2)ccn2cncc12)[C@H]1CC[C@H](c2ccc(OC3CCCC3)cc2)CC1` (single isomer, unassigned) [Example C118b], the 50% effective concentration (EC50) (at IDO1 [1]; in assay [2]) was above 10 µM throughout. Besides, the half-inhibitory concentration (IC50) at IDO1 [3] (read-out: Enzyme IC50 IDO1) was 3 µM.
For `O[C@@H](c1c(C2CC2)ccn2cncc12)[C@H]1CC[C@H](c2ccc(C(F)(F)F)nc2)CC1` (single isomer, unassigned) [Example C120b], the concentration giving a half-maximal response (EC50) (on IDO1 [1]; in assay [2]) was above 10 µM each time. Also, the IC50 on IDO1 [3] (read-out: Enzyme IC50 IDO1) amounted to 4.8 µM.
Regarding `O[C@@H](c1c(C2CC2)ccn2cncc12)[C@H]1CC[C@H](c2cccc3ccccc32)CC1` (single isomer, unassigned) [Example C121b], the EC50 (on IDO1 [1]; in assay [2]) was above 10 µM each time. Also, at IDO1 [3] (read-out: Enzyme IC50 IDO1), the IC50 was found to be 1.5 µM.
Turning to `O[C@H](c1c(C2CC2)ccn2cncc12)[C@H]1CC[C@H](c2cccc3ncccc32)CC1` (single isomer, unassigned) [Example C126a], the values for the EC50 (at IDO1 [1]; in assay [2]) were 0.02 µM and above 10 µM, respectively. The 50% inhibitory concentration (IC50) on IDO1 [3] (read-out: Enzyme IC50 IDO1) amounted to 0.016 µM.
Regarding `O[C@@H](c1c(C2CC2)ccn2cncc12)[C@H]1CC[C@H](c2cccc3ncccc32)CC1` (single isomer, unassigned) [Example C126b], the results for the EC50 (on IDO1 [1]; in assay [2]) were 6.05 µM and above 10 µM, respectively. Moreover, the IC50 at IDO1 [3] (read-out: Enzyme IC50 IDO1) came to 1.9 µM.
For `O[C@H](c1c(C2CC2)ccn2cncc12)[C@H]1CC[C@H](c2ccnc3ccccc32)CC1` (single isomer, unassigned) [Example C130a], in that order: 0.044 µM, above 10 µM and 0.017 µM.
As for `O[C@@H](c1c(C2CC2)ccn2cncc12)[C@H]1CC[C@H](c2ccnc3ccccc32)CC1` (single isomer, unassigned) [Example C130b], the EC50 on IDO1 [1] was 6.22 µM; in assay [2], above 10 µM. The half-maximal inhibitory concentration (IC50) at IDO1 [3] (read-out: Enzyme IC50 IDO1) came out at 2.5 µM.
For `O[C@H](c1c(C2CC2)ccn2cncc12)[C@H]1CC[C@H](c2ccc(F)c(Cl)c2)CC1` (single isomer, unassigned) [Example C132a], in that order: 0.188 µM, above 10 µM and 0.064 µM.
For `O[C@@H](c1c(C2CC2)ccn2cncc12)[C@H]1CC[C@H](c2ccc(F)c(Cl)c2)CC1` (single isomer, unassigned) [Example C132b], in that order: above 10 µM, above 10 µM and 2.5 µM.
As for `OC(c1c(C2CC2)ccn2cncc12)C1CCN(c2ccccc2)CC1` (single isomer, unassigned) [Example C136a], the values for the EC50 (at IDO1 [1]; in assay [2]) were 0.047 µM and above 10 µM, respectively. Also, the concentration for half-maximal inhibition (IC50) at IDO1 [3] (read-out: Enzyme IC50 IDO1) is 0.021 µM.
In the case of `OC(c1c(C2CC2)ccn2cncc12)C1CCN(c2ccccc2)CC1` (single isomer, unassigned) [Example C136b], the EC50 (at IDO1 [1]; in assay [2]) was above 10 µM throughout. Besides, at IDO1 [3] (read-out: Enzyme IC50 IDO1), the IC50 was 5.4 µM.
`OC(c1c(C2CC2)ccn2cncc12)C1CCN(c2ccc(F)cc2)CC1` (single isomer, unassigned) [Example C137a]: the EC50 is 0.074 µM at IDO1 [1] and above 10 µM in assay [2]. The IC50 at IDO1 [3] (read-out: Enzyme IC50 IDO1) turned out to be 0.026 µM.
Take `OC(c1c(C2CC2)ccn2cncc12)C1CCN(c2ccc(F)cc2)CC1` (single isomer, unassigned) [Example C137b]: the EC50 (at IDO1 [1]; in assay [2]) was above 10 µM in each case. Moreover, on IDO1 [3] (read-out: Enzyme IC50 IDO1), the IC50 amounted to 4.1 µM.
Consider `N#Cc1ccc(N2CCC(C(O)c3c(C4CC4)ccn4cncc34)CC2)cc1` (single isomer, unassigned) [Example C144a], for which the EC50 is 0.476 µM on IDO1 [1] and above 10 µM in assay [2]. In addition, the 50% inhibitory concentration (IC50) on IDO1 [3] (read-out: Enzyme IC50 IDO1) turned out to be 0.019 µM.
The corresponding values for `N#Cc1ccc(N2CCC(C(O)c3c(C4CC4)ccn4cncc34)CC2)cc1` (single isomer, unassigned) [Example C144b] are above 10 µM, above 10 µM and above 10 µM.
The corresponding values for `OC(c1c(C2CC2)ccn2cncc12)C1CCN(c2ccc(F)c3ncccc23)CC1` (single isomer, unassigned) [Example C149b] are 2.91 µM, above 10 µM and 2.4 µM.
As for `OC(c1c(C2CC2)ccn2cncc12)C1CCN(c2ccc(Cl)c3ncccc23)CC1` (single isomer, unassigned) [Example C154a], the EC50 at IDO1 [1] is 0.018 µM; in assay [2], above 10 µM. Also, the IC50 at IDO1 [3] (read-out: Enzyme IC50 IDO1) was 0.016 µM.
The corresponding values for `OC(c1c(C2CC2)ccn2cncc12)C1CCN(c2ccc(Cl)c3ncccc23)CC1` (single isomer, unassigned) [Example C154b] are 6.45 µM, above 10 µM and 2.9 µM.
For `OC(c1c(C2CC2)ccn2cncc12)C1CCN(c2ccc(F)c3cccnc23)CC1` (single isomer, unassigned) [Example C155a], in that order: above 10 µM, above 10 µM and 7.5 µM.
Regarding `OC(c1c(C2CC2)ccn2cncc12)C1CCN(c2ccc(F)c3cccnc23)CC1` (single isomer, unassigned) [Example C155b], the EC50 on IDO1 [1] was 0.04 µM; in assay [2], above 10 µM. For the same compound, the IC50 at IDO1 [3] (read-out: Enzyme IC50 IDO1) is 0.026 µM.
For `O[C@@H](c1c(C2CC2)ccc2cncn12)[C@H]1CC[C@H](c2ccccc2)CC1` (single isomer, unassigned) [Example D101b], in that order: 6.14 µM, above 10 µM and 1.3 µM.
For the compound `COc1ccc([C@H]2CC[C@H]([C@@H](O)c3c(C4CC4)ccc4cncn34)CC2)cc1` (single isomer, unassigned) [Example D102b], the values for the EC50 (on IDO1 [1]; in assay [2]) were 6.77 µM and above 10 µM, respectively. The compound further yielded an IC50 against IDO1 [3] (heading: Enzyme IC50 IDO1) above 10 µM.
As to `OC(c1c(C2CC2)ccc2cncn12)[C@H]1CC[C@@H](c2ccc(Cl)cc2)CC1` (single isomer, unassigned) [Example D103a], the EC50 (at IDO1 [1]; in assay [2]) was above 10 µM each time. Also, the IC50 on IDO1 [3] (read-out: Enzyme IC50 IDO1) was found to be 1.9 µM.
Turning to `OC(c1c(C2CC2)ccc2cncn12)[C@H]1CC[C@H](c2ccc(Cl)cc2)CC1` (single isomer, unassigned) [Example D103b], the EC50 was 6.88 µM at IDO1 [1] and above 10 µM in assay [2]. The IC50 on IDO1 [3] (read-out: Enzyme IC50 IDO1) came to 7.8 µM.
In the case of `O[C@@H](c1c(C2CC2)ccc2cncn12)[C@H]1CC[C@H](c2ccc(F)cc2)CC1` (single isomer, unassigned) [Example D104b], the EC50 at IDO1 [1] was 6.83 µM; in assay [2], above 10 µM. The IC50 on IDO1 [3] (read-out: Enzyme IC50 IDO1) was 9.9 µM.
The corresponding values for `O[C@@H](c1c(C2CC2)ccc2cncn12)[C@H]1CC[C@H](c2ccc(OC(F)(F)F)cc2)CC1` (single isomer, unassigned) [Example D105b] are 3.9 µM, above 10 µM and above 10 µM.
The corresponding values for `OC(c1c(C2CC2)ccc2cncn12)[C@H]1CC[C@H](c2ccc(C(F)(F)F)nc2)CC1` (single isomer, unassigned) [Example D107a] are 1.26 µM, above 10 µM and 0.036 µM.
For `OC(c1c(C2CC2)ccc2cncn12)[C@H]1CC[C@H](c2ccc(C(F)(F)F)nc2)CC1` (single isomer, unassigned) [Example D107b], in that order: above 10 µM, above 10 µM and 2.3 µM.
On to `N#Cc1ccc([C@H]2CC[C@H]([C@@H](O)c3c(C4CC4)ccc4cncn34)CC2)cc1` (single isomer, unassigned) [Example D110b], for which the 50% effective concentration (EC50) (at IDO1 [1]; in assay [2]) was above 10 µM in each case. For the same compound, the half-maximal inhibitory concentration (IC50) on IDO1 [3] (read-out: Enzyme IC50 IDO1) is above 10 µM.
For `O=C(O)c1ccc([C@H]2CC[C@H]([C@H](O)c3c(C4CC4)ccc4cncn34)CC2)cc1` (single isomer, unassigned) [Example D111a], the EC50 on IDO1 [1] was 0.351 µM; in assay [2], above 10 µM. The 50% inhibitory concentration (IC50) at IDO1 [3] (read-out: Enzyme IC50 IDO1) was found to be 0.017 µM.
